Columns and labels:
[1] = xn = mol fraction of the nth substance listed; conditions: 298.15 K, 101 kPa, Liquid
[2] = excess molar enthalpy (molar enthalpy of mixing); xn = mol fraction of the nth substance listed; conditions: 298.15 K, 101 kPa, Liquid

BrCCBr [1,2-dibromoethane] + CCCCC(=O)OC
Conditions | excess molar enthalpy [kcal/mol] | mass density [kg/m3]
[1], x2 = 0.0413 | – | 2086.33
[1], x2 = 0.0834 | – | 2009.4
[1], x2 = 0.1257 | – | 1934.54
[1], x2 = 0.1717 | – | 1857.45
[1], x2 = 0.2221 | – | 1776.23
[1], x2 = 0.2644 | – | 1711.22
[1], x2 = 0.3124 | – | 1640.62
[1], x2 = 0.3717 | – | 1557.38
[1], x2 = 0.4812 | – | 1414.72
[1], x2 = 0.5471 | – | 1335.17
[1], x2 = 0.6142 | – | 1258.34
[1], x2 = 0.6822 | – | 1184.61
[1], x2 = 0.755 | – | 1109.85
[1], x2 = 0.833 | – | 1033.97
[1], x2 = 0.9091 | – | 963.97
[2], x2 = 0.0457 | 0.00222 | –
[2], x2 = 0.1054 | 0.00361 | –
[2], x2 = 0.1756 | 0.00289 | –
[2], x2 = 0.2495 | -0.000765 | –
[2], x2 = 0.3112 | -0.0059 | –
[2], x2 = 0.3523 | -0.0102 | –
[2], x2 = 0.3893 | -0.0141 | –
[2], x2 = 0.4631 | -0.0184 | –
[2], x2 = 0.5105 | -0.0206 | –
[2], x2 = 0.5845 | -0.0217 | –
[2], x2 = 0.6874 | -0.0198 | –
[2], x2 = 0.7978 | -0.0149 | –
[2], x2 = 0.9098 | -0.00805 | –

BrCCCCCBr [1,5-dibromopentane] + COC=O
Conditions | excess molar enthalpy [kcal/mol] | mass density [kg/m3]
[1], x2 = 0.1109 | – | 1653.22
[1], x2 = 0.2235 | – | 1607
[1], x2 = 0.3094 | – | 1567.09
[1], x2 = 0.3956 | – | 1522.56
[1], x2 = 0.4606 | – | 1485.39
[1], x2 = 0.5307 | – | 1441.42
[1], x2 = 0.5985 | – | 1394.16
[1], x2 = 0.6548 | – | 1350.94
[1], x2 = 0.7035 | – | 1310.4
[1], x2 = 0.753 | – | 1265.54
[1], x2 = 0.7889 | – | 1230.37
[1], x2 = 0.8347 | – | 1181.99
[1], x2 = 0.9065 | – | 1097.57
[1], x2 = 0.9653 | – | 1017.86
[1], x2 = 0.9733 | – | 1006.52
[2], x2 = 0.1086 | 0.101 | –
[2], x2 = 0.2259 | 0.174 | –
[2], x2 = 0.336 | 0.227 | –
[2], x2 = 0.4363 | 0.255 | –
[2], x2 = 0.5163 | 0.265 | –
[2], x2 = 0.5848 | 0.264 | –
[2], x2 = 0.64 | 0.254 | –
[2], x2 = 0.6892 | 0.241 | –
[2], x2 = 0.7311 | 0.225 | –
[2], x2 = 0.7667 | 0.207 | –
[2], x2 = 0.8146 | 0.18 | –
[2], x2 = 0.8709 | 0.14 | –
[2], x2 = 0.9225 | 0.0935 | –
[2], x2 = 0.9675 | 0.046 | –

BrCCCCBr [1,4-dibromobutane] + COC(C)=O
Conditions | excess molar enthalpy [kcal/mol] | mass density [kg/m3]
[1], x2 = 0.0837 | – | 1770.14
[1], x2 = 0.1689 | – | 1713.04
[1], x2 = 0.2373 | – | 1664.79
[1], x2 = 0.3235 | – | 1601.13
[1], x2 = 0.3783 | – | 1558.38
[1], x2 = 0.4433 | – | 1505.87
[1], x2 = 0.5073 | – | 1451.51
[1], x2 = 0.5682 | – | 1397.42
[1], x2 = 0.6216 | – | 1347.79
[1], x2 = 0.6771 | – | 1293.95
[1], x2 = 0.7431 | – | 1226.93
[1], x2 = 0.8273 | – | 1135.92
[1], x2 = 0.9151 | – | 1033.42
[1], x2 = 0.9603 | – | 977.5
[2], x2 = 0.0848 | 0.0432 | –
[2], x2 = 0.1755 | 0.0741 | –
[2], x2 = 0.2635 | 0.0955 | –
[2], x2 = 0.3449 | 0.109 | –
[2], x2 = 0.4161 | 0.116 | –
[2], x2 = 0.4816 | 0.118 | –
[2], x2 = 0.5389 | 0.115 | –
[2], x2 = 0.5872 | 0.109 | –
[2], x2 = 0.6316 | 0.103 | –
[2], x2 = 0.6695 | 0.0954 | –
[2], x2 = 0.7038 | 0.089 | –
[2], x2 = 0.755 | 0.0763 | –
[2], x2 = 0.8095 | 0.062 | –
[2], x2 = 0.8632 | 0.046 | –
[2], x2 = 0.9128 | 0.0316 | –
[2], x2 = 0.9584 | 0.0149 | –

BrCCCCCCBr [1,6-dibromohexane] + COC=O
Conditions | excess molar enthalpy [kcal/mol] | mass density [kg/m3]
[1], x2 = 0.0951 | – | 1574.69
[1], x2 = 0.1373 | – | 1561.81
[1], x2 = 0.18 | – | 1547.9
[1], x2 = 0.2331 | – | 1529.55
[1], x2 = 0.3709 | – | 1475.52
[1], x2 = 0.4924 | – | 1417.67
[1], x2 = 0.5984 | – | 1357.11
[1], x2 = 0.6952 | – | 1290.94
[1], x2 = 0.799 | – | 1204.62
[1], x2 = 0.8251 | – | 1179.95
[1], x2 = 0.9038 | – | 1095.21
[1], x2 = 0.9183 | – | 1078.3
[1], x2 = 0.9504 | – | 1037.23
[1], x2 = 0.9718 | – | 1007.96
[2], x2 = 0.099 | 0.0911 | –
[2], x2 = 0.2052 | 0.166 | –
[2], x2 = 0.3188 | 0.231 | –
[2], x2 = 0.4099 | 0.26 | –
[2], x2 = 0.4481 | 0.27 | –
[2], x2 = 0.5059 | 0.278 | –
[2], x2 = 0.5777 | 0.278 | –
[2], x2 = 0.6385 | 0.268 | –
[2], x2 = 0.69 | 0.252 | –
[2], x2 = 0.7201 | 0.241 | –
[2], x2 = 0.7507 | 0.227 | –
[2], x2 = 0.7946 | 0.203 | –
[2], x2 = 0.8411 | 0.169 | –
[2], x2 = 0.9115 | 0.108 | –
[2], x2 = 0.9775 | 0.0335 | –

BrCCCBr [1,3-dibromopropane] + CCCC(=O)OC
Conditions | excess molar enthalpy [kcal/mol] | mass density [kg/m3]
[1], x2 = 0.0527 | – | 1904.53
[1], x2 = 0.1033 | – | 1844.63
[1], x2 = 0.1625 | – | 1775.48
[1], x2 = 0.2135 | – | 1716.63
[1], x2 = 0.268 | – | 1654.61
[1], x2 = 0.3273 | – | 1588.07
[1], x2 = 0.3844 | – | 1524.77
[1], x2 = 0.4397 | – | 1464.34
[1], x2 = 0.4966 | – | 1402.92
[1], x2 = 0.5597 | – | 1335.77
[1], x2 = 0.6194 | – | 1273.09
[1], x2 = 0.6773 | – | 1213.28
[1], x2 = 0.7401 | – | 1149.07
[1], x2 = 0.8089 | – | 1079.72
[1], x2 = 0.8623 | – | 1026.6
[1], x2 = 0.9397 | – | 950.76
[2], x2 = 0.0571 | 0.00789 | –
[2], x2 = 0.1319 | 0.0136 | –
[2], x2 = 0.2164 | 0.0167 | –
[2], x2 = 0.3018 | 0.0163 | –
[2], x2 = 0.3823 | 0.0126 | –
[2], x2 = 0.4559 | 0.00676 | –
[2], x2 = 0.5207 | -0.000191 | –
[2], x2 = 0.5371 | -0.00325 | –
[2], x2 = 0.5718 | -0.00545 | –
[2], x2 = 0.6497 | -0.00978 | –
[2], x2 = 0.7433 | -0.0109 | –
[2], x2 = 0.8389 | -0.00956 | –
[2], x2 = 0.9316 | -0.00511 | –

BrCCCCBr [1,4-dibromobutane] + CCCCC(=O)OC
Conditions | excess molar enthalpy [kcal/mol] | mass density [kg/m3]
[1], x2 = 0.0627 | – | 1757.47
[1], x2 = 0.1071 | – | 1711.91
[1], x2 = 0.1637 | – | 1654.55
[1], x2 = 0.2171 | – | 1601.18
[1], x2 = 0.3252 | – | 1495.18
[1], x2 = 0.4423 | – | 1383.13
[1], x2 = 0.5031 | – | 1326.06
[1], x2 = 0.621 | – | 1217.29
[1], x2 = 0.6839 | – | 1160.44
[1], x2 = 0.7415 | – | 1108.9
[1], x2 = 0.8021 | – | 1055.26
[1], x2 = 0.9296 | – | 944.62
[2], x2 = 0.0592 | 0.0081 | –
[2], x2 = 0.1366 | 0.0138 | –
[2], x2 = 0.2206 | 0.0173 | –
[2], x2 = 0.3061 | 0.0161 | –
[2], x2 = 0.3802 | 0.0125 | –
[2], x2 = 0.4461 | 0.00566 | –
[2], x2 = 0.4526 | 0.00449 | –
[2], x2 = 0.4992 | -0.00124 | –
[2], x2 = 0.5566 | -0.00686 | –
[2], x2 = 0.6213 | -0.0107 | –
[2], x2 = 0.6979 | -0.0116 | –
[2], x2 = 0.7947 | -0.0115 | –
[2], x2 = 0.9001 | -0.0075 | –
